Laboratory results reported in patent US11596598B2, “Chlorogenic acid-containing composition for nasal administration” (SICHUAN JIUZHANG BIOLOGICAL SCIENCE AND TECHNOLOGY CO., LTD, priority 2019, dated 2023).

Experiments:
telomerase = experiment: Telomerase detection in nasopharyngeal tissue of rats; assay type: in vivo, SD rats; conditions: rat nasopharyngeal tissue homogenate, Telomerase ELISA-PCR kit, 20th week
Method: SD rats were randomly divided into 8 groups, 5 rats for each group, and the groups included nasal administration groups: chlorogenic acid bulk drug group, the nasal powder group of example 1, the nasal powder group of example 5, the aerosol group of example 6, and the aerosol group of example 7; intraperitoneal injection group of chlorogenic acid, positive control drug group, and blank group. Amongst, for nasal administration, each test drug group received corresponding drugs at a dose of 20 mg/kg chlorogenic acid daily, once a day; intraperitoneal injection group of chlorogenic acid was administrated at a dose of 20 mg/kg chlorogenic acid daily, once a day; retinoic acid positive drug group was administered intragastrically at a dose of 90 mg/kg daily, once a day. Rats in each experimental group were given dinitrosopiperazine and phorbol ester to promote cancer. […] The rats were sacrificed at the 20th week, rhinitis tissues were dissected, histopathology was observed, and telomerase was detected.
Nasopharyngeal tissue homogenate was weighed and centrifuged, and then the supernatant was collected and processed according to Telomerase ELISA-PCR kit instruction (Shanghai Boehringer Mannheim Co.). After obtaining PCR reaction product, the telomerase activity was quantitatively detected, followed by concentration and electrophoresis on polyacrylamide gel, then staining with silver nitrate.

Rat C6 glioma cells = experiment: Inhibitory effect of nasal administration and intraperitoneal injection on glioma in rats; assay type: in vivo, SD rats; conditions: rat C6 brain glioma; for Tumor size: imaging on 21st day
Method: 1.1.3 Positive Control Drug: Temozolomide
40 SD rats, half male and half […], weighing 180-220 g.
Rat C6 glioma cells were incubated in 10% calf serum DMEM complete culture medium, subcultured in a monolayer culture method and allowed to grow to the required number of cells, and then subcultured once before inoculation. Cells in logarithmic growth phase are collected, digested with trypsin, centrifuged, and made to 1×10^4/10 μL cell suspension with Hanks solution, then stored in a refrigerator at 4° C. for inoculation.
Rats were anesthetized by intraperitoneal injection of 10% chloral hydrate, and the hair on the top of the rat's head was cut off and disinfected with iodine. The scalp was cut to expose the skull, and an electronic dental drill was used to open the cranium 1 mm behind the coronal suture and 3 mm to the right of the sagittal suture. 10 μL C6 cell suspension was injected, the bone hole was sealed with bone wax, and the incision was sutured. 5 days after tumor inoculation, the rats were examined by imaging, and tumorigenic rats were selected.
The tumorigenic rats were randomly divided into 8 groups, 5 rats for each group, and the groups included nasal administration groups: chlorogenic acid bulk drug group, the nasal powder group of example 1, the nasal powder group of example 5, the aerosol group of example 6, and the aerosol group of example 7; intraperitoneal injection group of chlorogenic acid, temozolomide positive control drug group, and blank group. For nasal administration, each test drug group received corresponding drugs at a dose of 20 mg/kg chlorogenic acid daily; intraperitoneal injection group of chlorogenic acid was administrated at a dose of 20 mg/kg chlorogenic acid daily; temozolomide positive control group was administered intragastrically at a dose of 25 mg/kg daily. Each test group started to be given the drug on the 6th day after tumor inoculation for 20 consecutive days, and on the 21st day each drug group and the blank group were imaged to check the tumor size.
SPSS software was used to perform t test, analysis of variance and multiple comparisons test.
The post-processing platform was used to measure the tumor volume on the 3DFSPGR sequence, and the tumor inhibition rate was calculated.

[1] = Blood-brain barrier permeability in rats after nasal administration (chlorogenic acid content in brain tissue); assay type: in vivo; conditions: SD, rat, other: nasal administration, 20 mg/kg chlorogenic acid
Method: 150 SD rats, half male and half […], weighing 180-220 g.
SD rats were randomly divided into 5 groups, 30 rats for each group, and each test drug was administrated nasally at a dose of 20 mg/kg chlorogenic acid. The tissue samples were collected at 10 min, 30 min, 60 min, 90 min, 120 min, and 150 min after administration.
After administration, each experimental group was intraperitoneally injected with 1% pentobarbital sodium (0.2 mL) for deep anesthesia according to the time point, and then a needle was inserted from the left ventricle. The right ventricle was cut, and physiological saline was injected with a syringe for cardiac perfusion until the liver and spleen turned gray, and the brain tissue was taken out.
The brain tissue was placed in a homogenizer, to which was added 0.9% sodium chloride injection according to brain tissue: normal saline=1:1 (w/v) and then homogenized. To 200 μL homogenate, were added 50 mg/mL puerarin internal standard solution (200 μL) and methanol (200 μL), and then the mixture was vortexed and centrifuged. The supernatant was collected as the brain tissue test solution.
(§1) Octadecylsilane-bonded silica gel column (150 mm×4.6 mm, 5 μm) and guard column were used; mobile phase A (methanol) and mobile phase B (0.2% phosphoric acid) were used to perform desorption according to a gradient elution procedure; the detection wavelength was 325 nm; the flow rate was 1 mL/min; the column temperature was 40° C.
20 μL of the brain tissue test solution was accurately measured, and injected into the liquid chromatograph, to record the chromatogram. The internal standard method was used to calculate the content of chlorogenic acid in […] with accompanying standard curve.

nasopharyngeal carcinoma = experiment: Inhibitory effect on nasopharyngeal carcinoma in rats: nasopharyngeal tissue paraffin microscopy; assay type: in vivo, SD rats; conditions: nasal administration, 20 mg/kg chlorogenic acid once a day, 5 rats per group, dinitrosopiperazine/phorbol ester induced, 20th week
Description: 1.1.3 Positive Control Drug: Retinoic Acid
SD rats, half male and half […], weighing 180-220 g.
SD rats were randomly divided into 8 groups, 5 rats for each group, and the groups included nasal administration groups: chlorogenic acid bulk drug group, the nasal powder group of example 1, the nasal powder group of example 5, the aerosol group of example 6, and the aerosol group of example 7; intraperitoneal injection group of chlorogenic acid, positive control drug group, and blank group. Amongst, for nasal administration, each test drug group received corresponding drugs at a dose of 20 mg/kg chlorogenic acid daily, once a day; intraperitoneal injection group of chlorogenic acid was administrated at a dose of 20 mg/kg chlorogenic acid daily, once a day; retinoic acid positive drug group was administered intragastrically at a dose of 90 mg/kg daily, once a day. Rats in each experimental group were given dinitrosopiperazine and phorbol ester to promote cancer. Dinitrosopiperazine was injected into the armpit at a dose of 40 mg/kg to induce carcinogenesis, twice a week, for a total of 15 weeks. After dinitrosopiperazine was injected for two weeks, phorbol diester was injected at a dose of 50 ng/rat, twice a week, for a total of 15 weeks. The rats were sacrificed at the 20th week, rhinitis tissues were dissected, histopathology was observed, and telomerase was detected.
Rat nasopharyngeal tissues were fixed with 10% formaldehyde, decalcified in Jenkin's solution, further fixed in neutral formalin, and embedded in paraffin to make serial sections, then stained with hematoxylin and eosin and observed under a microscope.

[2] = Bioavailability of nasal administration in beagle dogs (chlorogenic acid content in blood); assay type: in vivo; conditions: male, dog, serum, other: nasal administration, 4 mg/kg chlorogenic acid
Method: • Six male beagle dogs, weighing 10-13 kg.
Six beagle dogs were randomly divided into groups and cross-administered with one week interval.
After fasting for 12 h, test animals were given chlorogenic acid, nasal powder, and aerosol at a dose of 4 mg/kg chlorogenic acid by nasal administration, and one additional dog was injected intravenously with chlorogenic acid at 4 mg/kg. 3 h after administration, dogs were allowed to feed;
10 min, 30 min, 60 min, 90 min, 120 min, 150 min after administration of beagle dogs, 3 mL intravenous blood was collected, heparin was used to anticoagulate, and then 1 mL serum was separated by centrifugation, and stored in a refrigerator at −20° C.
To 100 μL serum, were added methanol-0.2% phosphoric acid (80:20) solution (100 μL), the solution of puerarin in methanol as internal standard (50 mg/mL, 100 μL), and 100 μL methanol. The resultant solution was vortexed for 3 min, allowed to stand, and centrifuged (12000 rpm) for 10 min. The supernatant was collected as the serum test solution.
as §1
20 μL of the serum test solution was accurately measured, and injected into the liquid chromatograph, to record the chromatogram. The internal standard method was used to calculate the content of chlorogenic acid in serum with accompanying standard curve.

[3] = intraperitoneal injection, 25 mg/kg daily for 20 days
[4] = nasal administration, 20 mg/kg chlorogenic acid daily for 20 days
[5] = 10 min after nasal administration
[6] = 30 min after nasal administration
[7] = 60 min after nasal administration
[8] = 90 min after nasal administration
[9] = 120 min after nasal administration
[10] = 150 min after nasal administration
[11] = listed as chlorogenic acid raw material

CC1=C(/C=C/C(C)=C/C=C/C(C)=C/C(=O)O)C(C)(C)CCC1 [Retinoic acid]
telomerase activity (telomerase; intragastric administration, 90 mg/kg once a day): 0.22±0.12

Cn1nnc2c(C(N)=O)ncn2c1=O [Temozolomide]
Tumor inhibition rate (Rat C6 glioma cells; [3]): 39.57% | Tumor size (Rat C6 glioma cells; [3]): 37.63 ± 3.21 mm3

O=C(/C=C/c1ccc(O)c(O)c1)O[C@@H]1C[C@](O)(C(=O)O)C[C@@H](O)[C@H]1O [Chlorogenic acid bulk drug, Chlorogenic acid]
Tumor inhibition rate (Rat C6 glioma cells; [4]): 22.35% | Tumor size (Rat C6 glioma cells; [4]): 48.35 ± 4.83 mm3 | concentration at 10 min [1, 5]: 0 ng/g | concentration at 30 min [1, 6]: 320 ng/g | concentration at 60 min [1, 7]: 860 ng/g | concentration at 90 min [1, 8]: 650 ng/g | concentration at 120 min [1, 9]: 320 ng/g | concentration at 150 min [1, 10]: 130 ng/g | Dysplastic tissue (number of rats, nasopharyngeal tissue paraffin microscopy) (nasopharyngeal carcinoma): 3 | Normal tissue (number of rats, nasopharyngeal tissue paraffin microscopy) (nasopharyngeal carcinoma): 1 | Simple hyperplasia (number of rats, nasopharyngeal tissue paraffin microscopy) (nasopharyngeal carcinoma): 1 | Dysplastic tissue (number of rats, nasopharyngeal tissue paraffin microscopy) (nasopharyngeal carcinoma; [11]): three | Simple hyperplasia (number of rats, nasopharyngeal tissue paraffin microscopy) (nasopharyngeal carcinoma; [11]): one | telomerase activity (telomerase; nasal administration, 20 mg/kg chlorogenic acid once a day): 0.56±0.17 | concentration at 10 min [2, 5]: 1020 ng/mL | concentration at 30 min [2, 6]: 5740 ng/mL | concentration at 60 min [2, 7]: 2200 ng/mL | concentration at 90 min [2, 8]: 980 ng/mL | concentration at 120 min [2, 9]: 520 ng/mL | concentration at 150 min [2, 10]: 220 ng/mL
